{
  "source": "patent US20250230125A1",
  "about": "(The Board of Regents of The University of Texas System, priority 2022, published 2025)",
  "key": {"[1]": {"biological_target": "T1, 5-HT3 (Homo sapiens, UniProt P46098)", "T1 sequence (P46098 24-478)": "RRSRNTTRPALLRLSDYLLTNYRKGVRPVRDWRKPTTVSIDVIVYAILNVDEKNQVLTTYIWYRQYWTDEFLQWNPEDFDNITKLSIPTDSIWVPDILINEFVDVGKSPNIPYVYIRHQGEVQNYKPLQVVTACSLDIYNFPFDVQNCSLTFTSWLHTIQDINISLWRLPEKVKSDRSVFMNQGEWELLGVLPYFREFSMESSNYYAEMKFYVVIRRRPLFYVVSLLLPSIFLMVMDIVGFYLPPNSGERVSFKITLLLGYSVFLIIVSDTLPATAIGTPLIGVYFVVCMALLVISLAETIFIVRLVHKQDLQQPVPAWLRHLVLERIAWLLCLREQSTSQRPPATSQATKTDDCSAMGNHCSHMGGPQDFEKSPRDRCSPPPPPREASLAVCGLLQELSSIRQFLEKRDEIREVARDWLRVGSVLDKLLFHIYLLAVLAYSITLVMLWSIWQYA", "experiment": "NIMH PDSP radioligand binding displacement, 5-HT3", "conditions": "radioligand [^3H]-LY278584", "from_the_text": ". To explore the off-target profile of the two compounds, the National Institute of Mental Health (NIMH) Psychoactive Drug Screening Program (PDSP) were utilized to assess in a broad-panel of GPCRs and monoamine transporters (Table 4). […]. [table]"}, "[2]": {"system": "hMDRI-MDCKII cells", "experiment": "MDCK-MDR1 membrane permeability and efflux", "format": "in vitro ADME"}, "[3]": {"experiment": "Rat liver microsomal intrinsic clearance", "format": "in vitro ADME", "conditions": "rat liver microsomes"}, "[4]": {"biological_target": "T2, CYP3A4 (Homo sapiens, UniProt P08684)", "T2 sequence (P08684 whole entry)": "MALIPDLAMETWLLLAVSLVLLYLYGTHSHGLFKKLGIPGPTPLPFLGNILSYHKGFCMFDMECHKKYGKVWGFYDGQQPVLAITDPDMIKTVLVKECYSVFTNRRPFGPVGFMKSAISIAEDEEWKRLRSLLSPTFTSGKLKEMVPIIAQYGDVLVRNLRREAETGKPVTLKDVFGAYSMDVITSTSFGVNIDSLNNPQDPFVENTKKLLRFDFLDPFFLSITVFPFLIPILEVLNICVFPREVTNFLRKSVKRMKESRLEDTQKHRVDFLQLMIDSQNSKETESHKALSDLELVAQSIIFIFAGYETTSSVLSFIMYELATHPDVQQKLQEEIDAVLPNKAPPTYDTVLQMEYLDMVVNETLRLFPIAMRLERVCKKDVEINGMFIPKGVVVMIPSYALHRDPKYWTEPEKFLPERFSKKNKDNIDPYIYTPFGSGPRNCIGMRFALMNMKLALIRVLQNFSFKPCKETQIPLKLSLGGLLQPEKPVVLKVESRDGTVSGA", "conditions": "microsomes, 10 µM"}, "[5]": {"biological_target": "T3, CYP2B6 (Homo sapiens, UniProt P20813)", "T3 sequence (P20813 1-491)": "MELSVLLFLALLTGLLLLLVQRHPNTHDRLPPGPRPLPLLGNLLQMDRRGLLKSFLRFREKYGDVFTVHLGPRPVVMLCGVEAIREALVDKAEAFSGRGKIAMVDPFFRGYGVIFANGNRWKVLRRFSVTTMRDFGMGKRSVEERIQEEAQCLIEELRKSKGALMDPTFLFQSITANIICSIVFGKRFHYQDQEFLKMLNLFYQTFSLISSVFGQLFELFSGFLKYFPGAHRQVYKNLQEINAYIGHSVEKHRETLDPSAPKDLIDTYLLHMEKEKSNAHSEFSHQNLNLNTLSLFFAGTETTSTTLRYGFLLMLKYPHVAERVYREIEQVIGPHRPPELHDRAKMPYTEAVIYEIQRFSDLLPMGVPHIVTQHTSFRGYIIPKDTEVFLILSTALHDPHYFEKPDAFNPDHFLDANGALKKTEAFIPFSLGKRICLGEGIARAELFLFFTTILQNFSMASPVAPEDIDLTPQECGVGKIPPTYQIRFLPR", "conditions": "microsomes, 10 µM"}, "[6]": {"biological_target": "T4, CYP2C8 (Homo sapiens, UniProt P10632)", "T4 sequence (P10632 1-490)": "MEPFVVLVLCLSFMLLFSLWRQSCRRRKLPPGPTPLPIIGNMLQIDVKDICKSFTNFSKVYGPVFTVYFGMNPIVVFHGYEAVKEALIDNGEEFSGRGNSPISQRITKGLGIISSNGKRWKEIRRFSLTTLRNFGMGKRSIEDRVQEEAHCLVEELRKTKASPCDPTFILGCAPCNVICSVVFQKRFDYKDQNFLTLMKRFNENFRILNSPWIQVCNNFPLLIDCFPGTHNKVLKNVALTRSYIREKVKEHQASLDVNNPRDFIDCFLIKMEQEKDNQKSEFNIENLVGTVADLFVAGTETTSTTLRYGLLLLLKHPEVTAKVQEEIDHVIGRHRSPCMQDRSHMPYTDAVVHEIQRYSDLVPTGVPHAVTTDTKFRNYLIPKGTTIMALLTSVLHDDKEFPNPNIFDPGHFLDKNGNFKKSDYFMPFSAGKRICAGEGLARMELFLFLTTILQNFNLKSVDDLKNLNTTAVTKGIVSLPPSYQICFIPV", "conditions": "microsomes, 10 µM"}, "[7]": {"biological_target": "T5, CYP2C9 (Homo sapiens, UniProt P11712)", "T5 sequence (P11712 whole entry)": "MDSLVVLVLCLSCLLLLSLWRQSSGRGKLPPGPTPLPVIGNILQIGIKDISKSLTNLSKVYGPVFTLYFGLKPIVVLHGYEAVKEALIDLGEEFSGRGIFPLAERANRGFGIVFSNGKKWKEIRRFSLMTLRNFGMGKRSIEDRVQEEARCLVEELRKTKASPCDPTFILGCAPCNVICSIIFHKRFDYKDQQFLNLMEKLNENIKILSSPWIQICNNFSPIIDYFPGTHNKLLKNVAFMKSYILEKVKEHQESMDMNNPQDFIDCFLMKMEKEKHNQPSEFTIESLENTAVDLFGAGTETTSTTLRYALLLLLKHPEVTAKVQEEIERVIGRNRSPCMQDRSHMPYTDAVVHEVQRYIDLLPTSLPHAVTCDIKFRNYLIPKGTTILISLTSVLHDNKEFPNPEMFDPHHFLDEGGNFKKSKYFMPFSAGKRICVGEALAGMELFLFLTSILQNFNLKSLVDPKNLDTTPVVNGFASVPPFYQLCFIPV", "conditions": "microsomes, 10 µM"}, "[8]": {"biological_target": "T6, CYP2C19 (Homo sapiens, UniProt P33261)", "T6 sequence (P33261 whole entry)": "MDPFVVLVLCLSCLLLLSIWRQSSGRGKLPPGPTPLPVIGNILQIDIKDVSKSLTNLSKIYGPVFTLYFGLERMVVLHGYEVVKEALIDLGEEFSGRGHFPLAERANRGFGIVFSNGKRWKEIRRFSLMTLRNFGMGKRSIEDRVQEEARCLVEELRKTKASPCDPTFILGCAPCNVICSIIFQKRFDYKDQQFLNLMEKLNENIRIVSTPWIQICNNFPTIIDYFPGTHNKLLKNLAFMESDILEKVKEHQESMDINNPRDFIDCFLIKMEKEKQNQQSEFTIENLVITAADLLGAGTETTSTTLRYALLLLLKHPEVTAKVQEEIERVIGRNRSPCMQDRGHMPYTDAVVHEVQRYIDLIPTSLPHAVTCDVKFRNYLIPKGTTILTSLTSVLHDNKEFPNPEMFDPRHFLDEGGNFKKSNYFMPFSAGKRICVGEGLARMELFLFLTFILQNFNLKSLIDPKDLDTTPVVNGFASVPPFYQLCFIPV", "conditions": "microsomes, 10 µM"}, "[9]": {"biological_target": "T7, CYP2D6 (Homo sapiens, UniProt P10635)", "T7 sequence (P10635 whole entry)": "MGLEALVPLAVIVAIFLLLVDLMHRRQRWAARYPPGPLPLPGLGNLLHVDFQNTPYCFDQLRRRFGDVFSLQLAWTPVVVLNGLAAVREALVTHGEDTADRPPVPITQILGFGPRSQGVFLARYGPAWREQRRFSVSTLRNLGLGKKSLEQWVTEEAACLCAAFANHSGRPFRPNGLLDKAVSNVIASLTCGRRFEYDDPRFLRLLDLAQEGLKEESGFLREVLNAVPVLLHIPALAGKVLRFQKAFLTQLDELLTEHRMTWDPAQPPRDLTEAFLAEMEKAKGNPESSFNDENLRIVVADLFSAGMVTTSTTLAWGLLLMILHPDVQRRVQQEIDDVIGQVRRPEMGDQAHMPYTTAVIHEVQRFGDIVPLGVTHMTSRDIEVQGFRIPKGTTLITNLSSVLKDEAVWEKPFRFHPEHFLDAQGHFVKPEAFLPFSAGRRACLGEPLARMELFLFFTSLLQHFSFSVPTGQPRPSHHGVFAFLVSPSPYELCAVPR", "conditions": "microsomes, 10 µM"}, "[10]": {"biological_target": "T2, CYP3A4", "experiment": "in vitro", "conditions": "microsomes"}, "[11]": {"biological_target": "T3, CYP2B6", "experiment": "in vitro", "conditions": "microsomes"}, "[12]": {"biological_target": "T4, CYP2C8", "experiment": "in vitro", "conditions": "microsomes"}, "[13]": {"biological_target": "T5, CYP2C9", "experiment": "in vitro", "conditions": "microsomes"}, "[14]": {"biological_target": "T6, CYP2C19", "experiment": "in vitro", "conditions": "microsomes"}, "[15]": {"biological_target": "T7, CYP2D6", "experiment": "in vitro", "conditions": "microsomes"}, "[16]": {"biological_target": "T8, CYP1A2 (Homo sapiens, UniProt P05177)", "T8 sequence (P05177 1-516)": "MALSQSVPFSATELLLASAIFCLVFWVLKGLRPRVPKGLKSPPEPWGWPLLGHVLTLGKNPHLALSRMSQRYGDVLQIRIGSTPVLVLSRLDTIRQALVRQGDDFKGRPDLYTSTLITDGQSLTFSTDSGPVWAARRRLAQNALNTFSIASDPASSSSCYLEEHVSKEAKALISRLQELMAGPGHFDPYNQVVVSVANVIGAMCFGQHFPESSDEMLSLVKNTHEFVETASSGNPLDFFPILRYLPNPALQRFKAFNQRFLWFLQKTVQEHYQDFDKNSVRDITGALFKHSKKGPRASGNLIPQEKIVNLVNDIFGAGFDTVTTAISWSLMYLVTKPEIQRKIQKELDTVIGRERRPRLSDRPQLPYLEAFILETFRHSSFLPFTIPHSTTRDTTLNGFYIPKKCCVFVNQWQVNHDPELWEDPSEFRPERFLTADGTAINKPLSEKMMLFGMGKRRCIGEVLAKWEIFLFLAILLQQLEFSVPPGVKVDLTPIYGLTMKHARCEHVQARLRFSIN", "experiment": "Human liver microsomes P450 inhibition, CYP1A2"}},
  "data": [
    {"smiles": "CCCCCCCC/C=C\\CCCCCCCC(=O)NC(CO)(CO)CO", "note": "[Compound 13, N-(1,3-dihydroxy-2-(hydroxymethyl)propan-2-yl)]", "values": [
      {"measurement": "inhibition at 10 µM", "setting": "[1]", "result": 5.63, "unit": "%"},
      {"measurement": "PappB→A", "setting": "[2]; With Pgp inhibitor", "result": "PappB→A = 4.77 × 10^−6 cm/s"},
      {"measurement": "PappB→A", "setting": "[2]; Without Pgp inhibitor", "result": "PappB→A = 3.23 × 10^−6 cm/s"},
      {"measurement": "Liver microsomal clearance CLR", "setting": "[3]", "result": "CLR = 174.66 μL/min/mg"},
      {"measurement": "Inhibitory % CYP3A4 (midazolam)", "setting": "[4]", "result": 18.72, "unit": "%"},
      {"measurement": "Inhibitory % CYP2B6", "setting": "[5]", "result": 53.31, "unit": "%"},
      {"measurement": "Inhibitory % CYP2C8", "setting": "[6]", "result": 11.87, "unit": "%"},
      {"measurement": "Inhibitory % CYP2C9", "setting": "[7]", "result": 21.2, "unit": "%"},
      {"measurement": "Inhibitory % CYP2C19", "setting": "[8]", "result": 18.34, "unit": "%"},
      {"measurement": "Inhibitory % CYP2D6", "setting": "[9]", "result": 10.13, "unit": "%"},
      {"measurement": "inhibition at 10 µM", "setting": "[10]", "result": "< 20", "unit": "%"},
      {"measurement": "inhibition at 10 µM", "setting": "[11]", "result": "> 50", "unit": "%"},
      {"measurement": "inhibition at 10 µM", "setting": "[12]", "result": "< 20", "unit": "%"},
      {"measurement": "inhibition at 10 µM", "setting": "[13]", "result": "< 20", "unit": "%"},
      {"measurement": "inhibition at 10 µM", "setting": "[14]", "result": "< 20", "unit": "%"},
      {"measurement": "inhibition at 10 µM", "setting": "[15]", "result": "< 20", "unit": "%"},
      {"measurement": "Inhibitory % CYP1A2", "setting": "[16]; 10 μM, human liver microsomes", "result": 3.4, "unit": "%"},
      {"measurement": "inhibition at 10 µM", "setting": "[16]; human, microsomes", "result": "< 20", "unit": "%"}
    ]}
  ]
}
